Assay results reported in PubChem BioAssay AID330 (DTP/NCI, 2004).
Values joined by “and” are separate entries in the source; they are usually repeats but may differ in a detail not shown here. Equal entries are not always repeated. Toxic doses and inconclusive results are not listed.

System: P388 leukemia ip, CD2F1 mice, survival T/C
Assay: NCI In Vivo Anticancer Drug Screen. Data for tumor model P388 Leukemia (intraperitoneal) in CD2F1 (CDF1) mice
Conditions: endpoint: median survival time, higher = longer survival
Method in brief: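 Mice carrying the transplanted tumor received test compound or vehicle. Survival was recorded in each group, and the value is the treated-group measurement divided by that of the vehicle-treated control group.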

[1] = dose: 12.5 mg/kg/injection, schedule: Q01DX009 (ip), vehicle: Klucel (hydroxypropylcellulose) (HPC)
[2] = dose: 25.0 mg/kg/injection, schedule: Q01DX009 (ip), vehicle: Klucel (hydroxypropylcellulose) (HPC)
[3] = dose: 50.0 mg/kg/injection, schedule: Q01DX005 (ip), vehicle: saline with Tween-80
[4] = dose: 100.0 mg/kg/injection, schedule: Q01DX005 (ip), vehicle: saline with Tween-80
[5] = dose: 50.0 mg/kg/injection, schedule: Q01DX005 (ip), vehicle: Klucel (hydroxypropylcellulose) (HPC)
[6] = dose: 100.0 mg/kg/injection, schedule: Q01DX005 (ip), vehicle: Klucel (hydroxypropylcellulose) (HPC)
[7] = dose: 200.0 mg/kg/injection, schedule: Q01DX005 (ip), vehicle: Klucel (hydroxypropylcellulose) (HPC)
[8] = dose: 200.0 mg/kg/injection, schedule: Q01DX005 (ip), vehicle: saline with Tween-80

## CC1CCC(C(C)C2C(O)CC3C4CCC5CC(N)CCC5(C)C4CCC32C)=NC1 (configuration not stated) (tested in a mixture with another compound)
dose: 6.25 mg/kg/injection, schedule: Q01DX009 (ip), vehicle: Klucel (hydroxypropylcellulose) (HPC)
  T/C: 100 % of control
[1]
  T/C: 94 % of control
[2]
  T/C: 105 % of control

## COc1ccc(/C=N/NC(=O)/C(C#N)=C/c2ccc(OC)cc2)cc1
dose: 100.0 mg/kg/injection, schedule: Q04DX003 (ip), vehicle: saline
  T/C: 110 % of control
dose: 200.0 mg/kg/injection, schedule: Q04DX003 (ip), vehicle: saline
  T/C: 105 % of control
dose: 400.0 mg/kg/injection, schedule: Q04DX003 (ip), vehicle: saline
  T/C: 95 % of control

## O=C(NCCCCCCCCCCNC(=O)N1CC1)N1CC1
dose: 0.25 mg/kg/injection, schedule: Q04DX003 (ip), vehicle: saline with Tween-80
  T/C: 104 % of control
dose: 0.5 mg/kg/injection, schedule: Q04DX003 (ip), vehicle: saline with Tween-80
  T/C: 108 % of control
dose: 1.56 mg/kg/injection, schedule: Q01DX009 (ip), vehicle: saline with Tween-80
  T/C: 165 % of control
dose: 2.0 mg/kg/injection, schedule: Q04DX003 (ip), vehicle: saline with Tween-80
  T/C: 159 % of control
dose: 3.0 mg/kg/injection, schedule: Q04DX003 (ip), vehicle: saline with Tween-80
  T/C: 209 % of control
dose: 3.13 mg/kg/injection, schedule: Q04DX003 (ip), vehicle: saline with Tween-80
  T/C: 185 % of control
dose: 4.5 mg/kg/injection, schedule: Q04DX003 (ip), vehicle: saline with Tween-80
  T/C: 204 % of control
dose: 6.25 mg/kg/injection, schedule: Q01DX009 (ip), vehicle: saline with Tween-80
  T/C: 95 % of control
dose: 6.25 mg/kg/injection, schedule: Q04DX003 (ip), vehicle: saline with Tween-80
  T/C: 150 % of control

## C=C1C(=O)OCC1(C(=O)OCC)C(=O)OCC
dose: 4.0 mg/kg/injection, schedule: Q01DX009 (ip), vehicle: saline with Tween-80
  T/C: 117 % of control
dose: 8.0 mg/kg/injection, schedule: Q01DX009 (ip), vehicle: saline with Tween-80
  T/C: 117 % of control and 124 % of control
dose: 16.0 mg/kg/injection, schedule: Q01DX009 (ip), vehicle: saline with Tween-80
  T/C: 115 % of control
dose: 32.0 mg/kg/injection, schedule: Q01DX009 (ip), vehicle: saline with Tween-80
  T/C: 115 % of control

## Cc1ncc(Cl)c2cc3ccccc3cc12
dose: 50.0 mg/kg/injection, schedule: Q01DX009 (ip), vehicle: saline
  T/C: 101 % of control and 89 % of control
dose: 100.0 mg/kg/injection, schedule: Q01DX009 (ip), vehicle: saline
  T/C: 99 % of control
dose: 200.0 mg/kg/injection, schedule: Q01DX009 (ip), vehicle: saline
  T/C: 99 % of control and 94 % of control

## CCN(CC)CCOCc1ccc2c(c1)OCO2
dose: 25.0 mg/kg/injection, schedule: Q01DX005 (ip), vehicle: saline with Tween-80
  T/C: 113 % of control
[3]
  T/C: 113 % of control
[4]
  T/C: 111 % of control

## C1CC[N-]CC1.C1CC[N-]CC1.[Cl][Cd][Cl]
dose: 0.2 mg/kg/injection, schedule: Q01DX009 (ip), vehicle: water
  T/C: 95 % of control
dose: 0.39 mg/kg/injection, schedule: Q01DX009 (ip), vehicle: water
  T/C: 96 % of control
dose: 0.78 mg/kg/injection, schedule: Q01DX009 (ip), vehicle: other
  T/C: 90 % of control
dose: 0.78 mg/kg/injection, schedule: Q01DX009 (ip), vehicle: water
  T/C: 98 % of control
dose: 1.56 mg/kg/injection, schedule: Q01DX009 (ip), vehicle: other
  T/C: 90 % of control
dose: 3.13 mg/kg/injection, schedule: Q01DX009 (ip), vehicle: other
  T/C: 93 % of control

## NC(=O)c1ncn2c(=O)n(CCCl)nnc12
dose: 6.25 mg/kg/injection, schedule: Q01DX005 (ip), vehicle: saline
  T/C: 181 % of control and 236 % of control
dose: 6.7 mg/kg/injection, schedule: Q01DX005 (ip), vehicle: saline
  T/C: 254 % of control
dose: 10.0 mg/kg/injection, schedule: Q01DX005 (ip), vehicle: saline
  T/C: 565 % of control and 566 % of control
dose: 12.5 mg/kg/injection, schedule: Q01DX005 (ip), vehicle: saline
  T/C: 272 % of control and 275 % of control and 297 % of control
dose: 15.0 mg/kg/injection, schedule: Q01DX005 (ip), vehicle: saline
  T/C: 566 % of control and 606 % of control
dose: 22.0 mg/kg/injection, schedule: Q01DX005 (ip), vehicle: saline
  T/C: 393 % of control and 566 % of control
dose: 25.0 mg/kg/injection, schedule: Q01DX005 (ip), vehicle: saline
  T/C: 272 % of control and 297 % of control and 306 % of control
dose: 33.0 mg/kg/injection, schedule: Q01DX005 (ip), vehicle: saline
  T/C: 566 % of control and 606 % of control
[5]
  T/C: 100 % of control

## Cc1ccc(S(=O)(=O)NCC(Cl)C#N)cc1 (configuration not stated)
[5]
  T/C: 105 % of control
[6]
  T/C: 106 % of control
[7]
  T/C: 103 % of control
dose: 400.0 mg/kg/injection, schedule: Q01DX005 (ip), vehicle: Klucel (hydroxypropylcellulose) (HPC)
  T/C: 102 % of control

## Cc1ccc(SCc2c(COc3ccc(Cl)cc3)sc3ccc(Cl)cc23)cc1
dose: 100.0 mg/kg/injection, schedule: Q01DX001 (ip), vehicle: saline with Tween-80
  T/C: 90 % of control
dose: 200.0 mg/kg/injection, schedule: Q01DX001 (ip), vehicle: saline with Tween-80
  T/C: 86 % of control
dose: 400.0 mg/kg/injection, schedule: Q01DX001 (ip), vehicle: saline with Tween-80
  T/C: 100 % of control

## C=CCc1cc2c(cc1C(C)c1ccc(OC)cc1)OCO2 (configuration not stated)
[3]
  T/C: 106 % of control
[4]
  T/C: 109 % of control
[8]
  T/C: 117 % of control

## Nc1ccc(/C=C/c2ccc3cccnc3c2)cc1
dose: 12.5 mg/kg/injection, schedule: Q01DX009 (ip), vehicle: DMSO
  T/C: 108 % of control
dose: 25.0 mg/kg/injection, schedule: Q01DX009 (ip), vehicle: DMSO
  T/C: 97 % of control
dose: 50.0 mg/kg/injection, schedule: Q01DX009 (ip), vehicle: DMSO
  T/C: 101 % of control

## COc1ccc(CC[n+]2cccc(C(=O)c3ccccc3)c2)cc1OC
dose: 12.5 mg/kg/injection, schedule: Q04DX002 (ip), vehicle: saline
  T/C: 97 % of control
dose: 25.0 mg/kg/injection, schedule: Q04DX002 (ip), vehicle: saline
  T/C: 105 % of control
dose: 50.0 mg/kg/injection, schedule: Q04DX002 (ip), vehicle: saline
  T/C: 101 % of control

## CSc1nc(Cl)cc(=O)n1C
dose: 6.25 mg/kg/injection, schedule: Q01DX005 (ip), vehicle: Klucel (hydroxypropylcellulose) (HPC)
  T/C: 104 % of control
dose: 12.5 mg/kg/injection, schedule: Q01DX005 (ip), vehicle: Klucel (hydroxypropylcellulose) (HPC)
  T/C: 105 % of control
dose: 25.0 mg/kg/injection, schedule: Q01DX005 (ip), vehicle: Klucel (hydroxypropylcellulose) (HPC)
  T/C: 100 % of control and 92 % of control

## Cc1nnc2cc1CCCCCCCCC2
[5]
  T/C: 108 % of control
[6]
  T/C: 107 % of control
[7]
  T/C: 103 % of control

## CN(CCO)C1CC(C)(C)N(O)C(C)(C)C1
dose: 60.0 mg/kg/injection, schedule: Q01DX005 (ip), vehicle: saline
  T/C: 96 % of control
dose: 120.0 mg/kg/injection, schedule: Q01DX005 (ip), vehicle: saline
  T/C: 100 % of control
dose: 240.0 mg/kg/injection, schedule: Q01DX005 (ip), vehicle: saline
  T/C: 100 % of control

## CN1CCN(C(=S)C(O)(c2ccccc2)c2ccccc2)CC1
dose: 100.0 mg/kg/injection, schedule: Q01DX001 (ip), vehicle: Klucel (hydroxypropylcellulose) (HPC)
  T/C: 105 % of control
dose: 200.0 mg/kg/injection, schedule: Q01DX001 (ip), vehicle: Klucel (hydroxypropylcellulose) (HPC)
  T/C: 105 % of control
dose: 400.0 mg/kg/injection, schedule: Q01DX001 (ip), vehicle: Klucel (hydroxypropylcellulose) (HPC)
  T/C: 100 % of control

## CSC(=S)/C(=C(/[O-])c1ccccc1)[n+]1cccc(C)c1
dose: 2.5 mg/kg/injection, schedule: Q04DX002 (ip), vehicle: saline with Tween-80
  T/C: 99 % of control
dose: 5.0 mg/kg/injection, schedule: Q04DX002 (ip), vehicle: saline with Tween-80
  T/C: 106 % of control
dose: 10.0 mg/kg/injection, schedule: Q04DX002 (ip), vehicle: saline with Tween-80
  T/C: 106 % of control

## CCOC(=O)/C(C#N)=C(/SC)N1CC1
[1]
  T/C: 100 % of control
[2]
  T/C: 93 % of control
dose: 50.0 mg/kg/injection, schedule: Q01DX009 (ip), vehicle: Klucel (hydroxypropylcellulose) (HPC)
  T/C: 110 % of control and 90 % of control

## N#C/C(=N\N=C(/C#N)c1ccc(Cl)cc1)c1ccc(Cl)cc1
[3]
  T/C: 97 % of control
[4]
  T/C: 94 % of control
[8]
  T/C: 88 % of control
